Where two headings read alike, the source gives them in different places.
Tests used:
ALDH1B1 = molecular target: T1, ALDH1B1 (Homo sapiens, UniProt P30837); experiment: ALDEFLUOR assay of cellular ALDH1B1 activity in ALDH1B1-transfected ALDH1A3−/− A375 cells; format: cell-based; settings: for IC50: ALDEFLUOR, ALDH1B1-overexpressing ALDH1A3−/− A375 cells, read-out: ALDH1B1(in cellulo) IC50
T1 sequence (P30837 18-517): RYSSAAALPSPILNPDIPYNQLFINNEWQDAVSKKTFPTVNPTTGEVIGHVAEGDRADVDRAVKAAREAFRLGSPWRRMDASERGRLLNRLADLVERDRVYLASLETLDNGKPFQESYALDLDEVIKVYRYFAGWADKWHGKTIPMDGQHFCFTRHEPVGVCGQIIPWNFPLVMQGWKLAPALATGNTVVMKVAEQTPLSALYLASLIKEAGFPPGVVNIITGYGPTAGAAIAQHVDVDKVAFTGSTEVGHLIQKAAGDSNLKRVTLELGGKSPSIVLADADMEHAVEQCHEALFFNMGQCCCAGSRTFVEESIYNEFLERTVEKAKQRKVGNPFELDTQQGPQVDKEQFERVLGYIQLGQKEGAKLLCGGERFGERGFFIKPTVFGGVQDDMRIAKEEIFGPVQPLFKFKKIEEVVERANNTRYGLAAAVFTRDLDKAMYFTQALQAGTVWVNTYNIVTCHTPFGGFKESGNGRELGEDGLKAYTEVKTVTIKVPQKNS
Experimental: ALDH1A3^−/− A375 cells were seeded into a 6-well plate at a density of 5×10^5 cells/well and cultured for 24 h. The cells were then transfected with either pCMV6-entry, pCMV6-GFP (Addgene, plasmid 11153), or pCMV-ALDH1B1. After 24 h, the media was replaced and transfection efficiencies were estimated by the EGFP-positive cells in the pCMV-GFP-transfected well. The cells were cultured for another 24 h and their ALDH activities were quantified using the ALDEFLUOR assay. Briefly, the cells were isolated from the plate with trypsin and resuspended in ALDEFLUOR assay buffer (STEMCELL Technologies) at a concentration of 4×10^5 cells/mL. Each ALDEFLUOR assay used 0.5 mL of this cell suspension, and the cells were treated with individual compounds for 15 min at 37° C. and 5% CO2. The cell suspensions were then treated with 2.5 μL ALDEFLUOR reagent and incubated for an additional 30 min at 37° C. and 5% CO2. The cells were then collected by centrifugation (450×g) for 5 min at room temperature, resuspended in 200 μL assay buffer, and analyzed with an LSR II flow cytometer (BD Biosciences) at the Stanford FACS facility.

[1] = HEK-293T cytotoxicity (cell viability) assay; format: cell-based; settings: human, HEK-293T cells; adherent HEK-293T, 4-5 days, CellTiter-Glo; read-out: HEK293T GI50
Experimental: HEK-293T cells were seeded into a 96-well plate at a density of 5×10^3 cells/well and treated with varying concentrations of selected compounds or an equivalent amount of DMSO vehicle. The cells were cultured for 4-5 days without a media change, and after the DMSO-treated cells approached 100% confluence, the cell viabilities were measured using a CellTiter-Glo 3D Cell Viability Assay kit (Promega) and a Veritas microplate luminometer (Turner BioSystems) as described above.

SW480 cells (adherent) = experiment: Cell viability assay, adherent SW480 cultures; format: cell-based, human; settings: adherent culture, 7 days
Experimental: (§1) SW480 or HCT116 cells were seeded into regular or Matrigel-coated 96-well plates at a density of 1000 cells/well. The cells were cultured in the corresponding adherent or spheroid culture medium (200 μL/well) containing the designated compounds or an equivalent amount of DMSO vehicle. Each culture was maintained for 7 days, and then cell viabilities were measured using a CellTiter-Glo 3D Cell Viability Assay kit (Promega). Briefly, 100 μL of the culture medium was removed from each well and replaced with 100 μL 3D Cell Assay reagent. The cells in each well were next homogenized by vigorous pipetting, and the plate was incubated for 10 min at room temperature to stabilize the chemiluminescent signal. A 150-μL aliquot from each well was then transferred into a white opaque 96-well assay plate (flat-bottom and non-treated; Corning Costar) and luminescence intensities were measured with a Veritas microplate luminometer (Turner BioSystems).

SW480 cells (spheroid) = experiment: Matrigel spheroid growth / viability assay, SW480; format: cell-based; settings: for effect on SW480 spheroid formation: 2-μM dose; for GI50: Homo sapiens, SW480, 168 h
Experimental: To prepare Matrigel-coated culture plates, 96-well and 24-well plates were placed on ice and coated with 25 μL or 300 μL, respectively, of Matrigel matrix (Corning, LDEV-free) that had been thawed overnight at 4° C. The plates were then placed in a 37° C. incubator for 30 min to allow the Matrigel to solidify. SW480 or HCT116 cells were suspended in spheroid culture medium (RPMI-1640 containing 20 ng/mL recombinant human epidermal growth factor (Abcam, ab9697), 20 ng/mL recombinant human fibroblast growth factor (BioVision, 4037), 5 μg/mL heparin (Sigma), 1× N-2 supplement (Thermo Fisher Scientific), 100 U/mL penicillin, and 100 μg/mL streptomycin) and then seeded into the 96-well and 24-well Matrigel-coated plates at densities of 1,000 or 5,000 cells/well and total well volumes of […] or 1 mL, respectively. Compounds were diluted in spheroid culture medium and added to the wells, and the spheroid were grown at 37° C. with 5% CO2 for 7 days.
To quantify spheroid growth at the 7-day endpoint, unstained spheroids were imaged with phase-contrast illumination using a Keyence BZ-X710 microscope. Some cultures were also stained with crystal violet to enable brightfield imaging. Briefly, the Matrigel spheroids cultures were treated with PBS containing 0.5% crystal violet and 5% methanol for 15 min at 37° C. and then gently washed 4×5 min with PBS. Spheroid sizes were quantified with ImageJ (Fiji) software using masks created with the default “Threshold” function and foreground/background adjustments to optimize masking fidelity. The full field of view was then selected for “Analyze Particles” analysis, providing numbered list of each spheroid and its area in the micrograph. In the few cases that two adjacent spheroids were treated as one object by the image processing software, their measurements were manually corrected using the “Freehand Selections” tool. To exclude background and debris from dead cells, spheroids with areas less than 500 μm^2 were excluded from the image analyses.
as §1

[2] = Matrigel spheroid culture, 7 days, read-out: Spheroid SW480 GI50

SMILES | IC50 (ALDH1B1) | GI50 [1] | GI50 (SW480 cells (adherent); Homo sapiens, SW480, 168 h) | effect on SW480 spheroid formation (SW480 cells (spheroid)) | GI50 (SW480 cells (spheroid); [2]) | effect on ALDH1B1-dependent ALDEFLUOR signal (cellular ALDH1B1 activity) (ALDH1B1; flow cytometry) | GI50 (SW480 cells (adherent)) | GI50 (SW480 cells (spheroid); read-out: Spheroid SW480 GI50 (nM), Matrigel spheroid culture, 7 days)
COc1ccccc1-c1ccc(-c2cn(-c3ccccc3OC)c3[n+]2CCCCC3)cc1.[Br-] [Imidazolium 8] | 22 nM | 160 nM | 850 nM | strongly suppressed SW480 spheroid formation | 960 nM | – | – | –
COc1ccccc1-n1cc(-c2ccccn2)[n+]2c1CCCCC2 [Compound 63] | – | – | – | did not impede the growth | – | had no effect | – | –
COc1ccccc1-n1cc(-c2ccc(-c3ccccc3)cc2)[n+]2c1CCCCC2 [Imidazolium 2] | 38 nM | 230 nM | 570 nM | strongly suppressed SW480 spheroid formation | 820 nM | – | – | –
COc1ccccc1C1=CN(c2ccc(-c3ccccc3)cc2)C2=NCCCCN12 [HPI-273] | 35 nM | 2800 nM | 5800 nM | – | 1600 nM | – | – | –
COc1ccccc1C1=CN(c2ccc(-c3ccccc3)cc2)C2=NCCCN12 [STL5-T-0002] | 110 nM | 8900 nM | – | – | – | – | 8200 nM | 750 nM

From US12570661B2, “Isoform-specific aldehyde dehydrogenase inhibitors” (The Board of Trustees of the Leland Stanford Junior …, priority 2020, dated 2026)
